The record followed here is patent publication US20230321125A1, “COMPOSITIONS OF GINSENOSIDE RG3 AND GINSENOSIDE RG5 AND THEIR PHARMACEUTICAL USES INCLUDING ANTI-TUMOR EFFECTS” (DALIAN FUSHENG NATURAL MEDICINE DEVELOPMENT CO., LTD., priority 2020, published 2023).

Each structure is given as a SMILES string.

The subject of the test is QBC939/ADM. Put plainly: CCK-8 assay of cytotoxicity of targeted drugs with or without ginsenoside composition in drug-resistant cells. It is filed as cell-based, Human. As to conditions: 24 h. How it is done: 1. Materials and Methods Human cholangiocarcinoma cell line QBC939, purchased from Shanghai Honshun Biological Technology Co., Ltd.
The human cholangiocarcinoma cell line QBC939 was thawed and inoculated into T25 cell culture flasks filled with cell culture medium, and QBC939/ADM was constructed by continuously increasing the contact concentration of ADM.
The cells were divided into a blank zeroed control group, a normal control group and 9 experimental groups, each containing 100 μL of 80 μg/mL ginsenoside composition for cell culturing.
The control group (chemotherapeutic drug group): 100 μL of culture medium containing chemotherapeutic drugs was added to each well. The chemotherapeutic drugs included the targeted drugs afatinib (400 μg/mL), ceritinib (1000 μg/mL) and erlotinib (200 μg/mL). Six replicate wells were set up for each drug.
The experimental group (chemotherapeutic drugs+traditional Chinese medicine): 100 μL of culture medium containing chemotherapeutic drugs+ginsenoside composition was added to each well, namely afatinib (400 μg/mL)+ginsenoside composition (80 μg/mL), ceritinib (1000 μg/mL)+ginsenoside composition (80 μg/mL), and erlotinib (200 μg/mL)+ginsenoside composition (80 μg/mL). Six replicate wells were set up for each drug.
The cytotoxic effects of the chemotherapeutic drugs were detected 24 h later.
On the technique in general: Tetrazolium assays rely on reduction of a dye to a coloured formazan, in cell work by metabolically active cells.

`Cc1cc(Nc2ncc(Cl)c(Nc3ccccc3S(=O)(=O)C(C)C)n2)c(OC(C)C)cc1C1CCNCC1` [ceritinib]: under “control group: ceritinib 1000 μg/mL alone”, the “Absorbance value (OD, CCK-8), Ceritinib” value is 1.304 ± 0.096. Turning to `CN(C)C/C=C/C(=O)Nc1cc2c(Nc3ccc(F)c(Cl)c3)ncnc2cc1O[C@H]1CCOC1` [afatinib], the “Absorbance value (OD, CCK-8), Afatinib” value (control group: afatinib 400 μg/mL alone) came out at 1.179 ± 0.147. Consider `C#Cc1cccc(Nc2ncnc3cc(OCCOC)c(OCCOC)cc23)c1` [erlotinib], for which the “Absorbance value (OD, CCK-8), Erlotinib” value (control group: erlotinib 200 μg/mL alone) came out at 1.294 ± 0.131.
